# Data reported in PubChem BioAssay (NCI).
#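 Interpolation was linear, between the two tested concentrations surrounding the appropriate level; five concentrations were tested over 48 hours in 96-well plates. GI50 marks 50% less growth. TGI is the concentration that stops growth completely.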
# Experiments:
# Test in all cases: NCI-60 cell line screen, 48 h
# 786-0 renal = system: 786-0 renal
# A498 renal = system: A498 renal
# A549 NSCLC = system: A549 NSCLC
# ACHN renal = system: ACHN renal
# BT-549 breast = system: BT-549 breast
# CAKI-1 renal = system: CAKI-1 renal
# CCRF-CEM leukemia = system: CCRF-CEM leukemia
# COLO 205 colon = system: COLO 205 colon
# DU-145 prostate = system: DU-145 prostate
# EKVX NSCLC = system: EKVX NSCLC
# HCC-2998 colon = system: HCC-2998 colon
# HCT-116 colon = system: HCT-116 colon
# HCT-15 colon = system: HCT-15 colon
# HL-60(TB) leukemia = system: HL-60(TB) leukemia
# HOP-62 NSCLC = system: HOP-62 NSCLC
# HOP-92 NSCLC = system: HOP-92 NSCLC
# HS 578T breast = system: HS 578T breast
# HT29 colon = system: HT29 colon
# IGROV1 ovarian = system: IGROV1 ovarian
# K-562 leukemia = system: K-562 leukemia
# KM12 colon = system: KM12 colon
# M14 melanoma = system: M14 melanoma
# MALME-3M melanoma = system: MALME-3M melanoma
# MCF7 breast = system: MCF7 breast
# MDA-MB-231 breast = system: MDA-MB-231 breast
# MDA-MB-435 = system: MDA-MB-435
# MOLT-4 leukemia = system: MOLT-4 leukemia
# NCI-H226 lung = system: NCI-H226 lung
# NCI-H23 lung = system: NCI-H23 lung
# NCI-H460 lung = system: NCI-H460 lung
# NCI-H522 lung = system: NCI-H522 lung
# NCI/ADR-RES ovarian = system: NCI/ADR-RES ovarian
# OVCAR-3 ovarian = system: OVCAR-3 ovarian
# OVCAR-4 ovarian = system: OVCAR-4 ovarian
# OVCAR-5 ovarian = system: OVCAR-5 ovarian
# OVCAR-8 ovarian = system: OVCAR-8 ovarian
# PC-3 prostate = system: PC-3 prostate
# RPMI-8226 leukemia = system: RPMI-8226 leukemia
# SF-268 CNS = system: SF-268 CNS
# SF-295 CNS = system: SF-295 CNS
# SF-539 CNS = system: SF-539 CNS
# SK-MEL-2 melanoma = system: SK-MEL-2 melanoma
# SK-MEL-28 melanoma = system: SK-MEL-28 melanoma
# SK-MEL-5 melanoma = system: SK-MEL-5 melanoma
# SK-OV-3 ovarian = system: SK-OV-3 ovarian
# SN12C renal = system: SN12C renal
# SNB-19 CNS = system: SNB-19 CNS
# SNB-75 CNS = system: SNB-75 CNS
# SR leukemia = system: SR leukemia
# SW-620 colon = system: SW-620 colon
# T-47D breast = system: T-47D breast
# TK-10 renal = system: TK-10 renal
# U251 CNS = system: U251 CNS
# UACC-257 melanoma = system: UACC-257 melanoma
# UACC-62 melanoma = system: UACC-62 melanoma
# UO-31 renal = system: UO-31 renal
smiles,measurement,setting,value
COc1ccc2nc(-c3ccccc3)cc(Nc3ccc(/C(C)=N/O)cc3)c2c1,GI50,786-0 renal,2090 nM
same,TGI,786-0 renal,3.7 µM
same,GI50,A498 renal,2030 nM
same,TGI,A498 renal,4.98 µM
same,GI50,A549 NSCLC,3.42 µM
same,TGI,A549 NSCLC,32 µM
same,GI50,ACHN renal,14.1 µM
same,TGI,ACHN renal,29.3 µM
same,GI50,BT-549 breast,2070 nM
same,TGI,BT-549 breast,4.76 µM
same,GI50,CAKI-1 renal,2500 nM
same,GI50,CCRF-CEM leukemia,3.48 µM
same,TGI,CCRF-CEM leukemia,> 100 µM
same,GI50,COLO 205 colon,4.91 µM
same,TGI,COLO 205 colon,> 100 µM
same,GI50,DU-145 prostate,2800 nM
same,TGI,DU-145 prostate,> 23 µM
same,GI50,EKVX NSCLC,3.02 µM
same,TGI,EKVX NSCLC,> 100 µM
same,GI50,HCC-2998 colon,2190 nM
same,TGI,HCC-2998 colon,4.94 µM
same,GI50,HCT-116 colon,1520 nM
same,TGI,HCT-116 colon,2850 nM
same,GI50,HCT-15 colon,13.9 µM
same,TGI,HCT-15 colon,> 63.9 µM
same,GI50,HL-60(TB) leukemia,2880 nM
same,TGI,HL-60(TB) leukemia,> 100 µM
same,GI50,HOP-62 NSCLC,2140 nM
same,TGI,HOP-62 NSCLC,5.06 µM
same,GI50,HOP-92 NSCLC,821 nM
same,TGI,HOP-92 NSCLC,22.5 µM
same,GI50,HS 578T breast,2240 nM
same,TGI,HS 578T breast,5.31 µM
same,GI50,HT29 colon,2700 nM
same,TGI,HT29 colon,> 100 µM
same,GI50,IGROV1 ovarian,13.4 µM
same,TGI,IGROV1 ovarian,> 22 µM
same,GI50,K-562 leukemia,2200 nM
same,TGI,K-562 leukemia,> 100 µM
same,GI50,KM12 colon,3.74 µM
same,TGI,KM12 colon,> 100 µM
same,GI50,M14 melanoma,1460 nM
same,TGI,M14 melanoma,2780 nM
same,GI50,MALME-3M melanoma,2800 nM
same,TGI,MALME-3M melanoma,9.92 µM
same,GI50,MCF7 breast,3.35 µM
same,TGI,MCF7 breast,> 19.7 µM
same,GI50,MDA-MB-231 breast,733 nM
same,TGI,MDA-MB-231 breast,2070 nM
same,GI50,MDA-MB-435,3.4 µM
same,GI50,MOLT-4 leukemia,3.73 µM
same,TGI,MOLT-4 leukemia,> 100 µM
same,GI50,NCI-H226 lung,1950 nM
same,TGI,NCI-H226 lung,4.39 µM
same,GI50,NCI-H23 lung,2510 nM
same,TGI,NCI-H23 lung,> 20.9 µM
same,GI50,NCI-H460 lung,2800 nM
same,TGI,NCI-H460 lung,> 23.3 µM
same,GI50,NCI-H522 lung,14.9 µM
same,TGI,NCI-H522 lung,> 24.6 µM
same,GI50,NCI/ADR-RES ovarian,2750 nM
same,TGI,NCI/ADR-RES ovarian,> 24.6 µM
same,GI50,OVCAR-3 ovarian,2870 nM
same,TGI,OVCAR-3 ovarian,> 100 µM
same,GI50,OVCAR-4 ovarian,3.9 µM
same,TGI,OVCAR-4 ovarian,> 100 µM
same,GI50,OVCAR-5 ovarian,5.5 µM
same,TGI,OVCAR-5 ovarian,> 100 µM
same,GI50,OVCAR-8 ovarian,3.02 µM
same,TGI,OVCAR-8 ovarian,> 27.5 µM
same,GI50,PC-3 prostate,6.36 µM
same,TGI,PC-3 prostate,> 64.8 µM
same,GI50,RPMI-8226 leukemia,2160 nM
same,TGI,RPMI-8226 leukemia,7.06 µM
same,GI50,SF-268 CNS,3.39 µM
same,TGI,SF-268 CNS,> 23 µM
same,GI50,SF-295 CNS,2210 nM
same,TGI,SF-295 CNS,5.23 µM
same,GI50,SF-539 CNS,350 nM
same,TGI,SF-539 CNS,3.05 µM
same,GI50,SK-MEL-2 melanoma,88.4 µM
same,TGI,SK-MEL-2 melanoma,> 100 µM
same,GI50,SK-MEL-28 melanoma,3.13 µM
same,TGI,SK-MEL-28 melanoma,> 100 µM
same,GI50,SK-MEL-5 melanoma,2620 nM
same,TGI,SK-MEL-5 melanoma,7.57 µM
same,GI50,SK-OV-3 ovarian,2150 nM
same,TGI,SK-OV-3 ovarian,5.22 µM
same,GI50,SN12C renal,1700 nM
same,TGI,SN12C renal,3.19 µM
same,GI50,SNB-19 CNS,5.38 µM
same,TGI,SNB-19 CNS,> 100 µM
same,GI50,SNB-75 CNS,3.54 µM
same,TGI,SNB-75 CNS,> 100 µM
same,GI50,SR leukemia,3.82 µM
same,TGI,SR leukemia,> 100 µM
same,GI50,SW-620 colon,2720 nM
same,TGI,SW-620 colon,> 22.1 µM
same,GI50,T-47D breast,6.18 µM
same,TGI,T-47D breast,> 100 µM
same,GI50,TK-10 renal,1630 nM
same,TGI,TK-10 renal,3.42 µM
same,GI50,U251 CNS,6.7 µM
same,TGI,U251 CNS,> 67.1 µM
same,GI50,UACC-257 melanoma,2880 nM
same,TGI,UACC-257 melanoma,7.78 µM
same,GI50,UACC-62 melanoma,2100 nM
same,TGI,UACC-62 melanoma,4.65 µM
same,GI50,UO-31 renal,41.3 µM
same,TGI,UO-31 renal,> 100 µM
